Experimental data published in the CombiSolv-Exp solvation set (Vermeire and Green 2021).

Assay: solvent given as SMILES

With COc1ccccc1 the “solvation free energy, 298 K” value (in CCCCCCC) was -5.35 kcal/mol, the “solvation free energy, 298 K” value (in CCCCCCCCCCCCCCCC) was -5.21 kcal/mol and the “solvation free energy, 298 K” value (in CCCCCCCCO) was -5.46 kcal/mol. The “solvation free energy, 298 K” value (in O) was -2.53 kcal/mol and the “solvation free energy, 298 K” value (in [2H]O[2H]) was -2.62 kcal/mol.
In the case of CC(C)CCCCCOC(=O)c1ccccc1C(=O)OCCCCCC(C)C, the “solvation free energy, 298 K” value (in O) was -6.43 kcal/mol.
In the case of Cc1cccc(Nc2ccccc2C(=O)O)c1C, the “solvation free energy, 298 K” value (in O) was -6.78 kcal/mol.
In the case of C=CC=O, the “solvation free energy, 298 K” value (in CCCCCO) was -3.22 kcal/mol, the “solvation free energy, 298 K” value (in CCCCO) was -3.21 kcal/mol and the “solvation free energy, 298 K” value (in O) was -3.16 kcal/mol.
For Cc1cc(C)cc(O)c1, the “solvation free energy, 298 K” value (in CC(C)CC(C)(C)C) was -6.48 kcal/mol, the “solvation free energy, 298 K” value (in CCCCCC) was -6.77 kcal/mol and the “solvation free energy, 298 K” value (in CCCCCCC) was -6.71 kcal/mol. For the same compound, the “solvation free energy, 298 K” value (in CCCCCCCC) was -6.69 kcal/mol and the “solvation free energy, 298 K” value (in O) was -6.28 kcal/mol.
For [2H]O[2H], the “solvation free energy, 298 K” value (in C1CCCCC1) was -0.54 kcal/mol, the “solvation free energy, 298 K” value (in CCO) was -5.24 kcal/mol and the “solvation free energy, 298 K” value (in ClC(Cl)(Cl)Cl) was -1.14 kcal/mol. For the same compound, the “solvation free energy, 298 K” value (in S=C=S) was -0.75 kcal/mol.
In the case of Clc1cc(Cl)c(-c2cc(Cl)ccc2Cl)c(Cl)c1, the “solvation free energy, 298 K” value (in O) was -2.25 kcal/mol.
For Cc1ccc(N)cc1, the “solvation free energy, 298 K” value (in CC(C)CC(C)(C)C) was -6.29 kcal/mol, the “solvation free energy, 298 K” value (in CCCCCC) was -6.06 kcal/mol and the “solvation free energy, 298 K” value (in CCCCCCC) was -6.14 kcal/mol. For the same compound, the “solvation free energy, 298 K” value (in CCCCCCCC) was -6.29 kcal/mol, the “solvation free energy, 298 K” value (in Cc1cccc(C)c1) was -7.26 kcal/mol and the “solvation free energy, 298 K” value (in Cc1ccccc1C) was -7.27 kcal/mol.
With CC12CCC(=O)C=C1CCC1C2C(O)CC2(C)C1CCC2(O)C(=O)CO (stereo not drawn) the “solvation free energy, 298 K” value (in C=CCCCCCCC=C) was -21.7 kcal/mol, the “solvation free energy, 298 K” value (in C=CCCCCCCCCCCCCCC) was -20.9 kcal/mol and the “solvation free energy, 298 K” value (in O) was -25.4 kcal/mol.
For O=C1NC(=O)c2ccccc21, the “solvation free energy, 298 K” value (in O) was -9.61 kcal/mol.
In the case of CC(C)N, the “solvation free energy, 298 K” value (in CCCCCC) was -2.78 kcal/mol.
For CCOC(=O)c1ccccc1, the “solvation free energy, 298 K” value (in O) was -3.74 kcal/mol.
In the case of CC(=O)NS(=O)(=O)c1ccc(N)cc1, the “solvation free energy, 298 K” value (in O) was -18.4 kcal/mol.
With CCC(C)(C)C(=O)OC1CC(C)C=C2C=CC(C)C(CCC3CC(O)CC(=O)O3)C21 (stereo not drawn) the “solvation free energy, 298 K” value (in CC(=O)OC(C)C) was -25 kcal/mol, the “solvation free energy, 298 K” value (in CC(=O)OCC(C)C) was -24.9 kcal/mol and the “solvation free energy, 298 K” value (in CCC(C)O) was -25.1 kcal/mol. The “solvation free energy, 298 K” value (in CCC(C)OC(C)=O) was -24.9 kcal/mol, the “solvation free energy, 298 K” value (in CCCCCCCCO) was -24.8 kcal/mol and the “solvation free energy, 298 K” value (in CCCCCCO) was -25 kcal/mol. The “solvation free energy, 298 K” value (in CCCCCO) was -25 kcal/mol, the “solvation free energy, 298 K” value (in CCCCO) was -25.1 kcal/mol and the “solvation free energy, 298 K” value (in CCCCOC(C)=O) was -25 kcal/mol. For the same compound, the “solvation free energy, 298 K” value (in CCCO) was -25.1 kcal/mol, the “solvation free energy, 298 K” value (in CCCOC(C)=O) was -25 kcal/mol and the “solvation free energy, 298 K” value (in CCO) was -25.1 kcal/mol. The “solvation free energy, 298 K” value (in CCOC(C)=O) was -25.1 kcal/mol and the “solvation free energy, 298 K” value (in COC(C)=O) was -25.1 kcal/mol.
For ON=C1CCCCC1, the “solvation free energy, 298 K” value (in CCCCCC) was -6.16 kcal/mol.
With CCOC(OCC)Oc1ccccc1 the “solvation free energy, 298 K” value (in O) was -5.23 kcal/mol.
With ClC1=C(Cl)C2(Cl)C3C(Cl)CC(Cl)C3C1(Cl)C2(Cl)Cl (stereo not drawn) the “solvation free energy, 298 K” value (in O) was -3.44 kcal/mol.
In the case of CCSc1nc(NC(C)C)nc(NC(C)C)n1, the “solvation free energy, 298 K” value (in O) was -9 kcal/mol.
For CC(=O)OCC1=CCC2CC1C2(C)C (stereo not drawn), the “solvation free energy, 298 K” value (in O) was -3.6 kcal/mol.
In the case of CCOC(C)O (stereo not drawn), the “solvation free energy, 298 K” value (in O) was -6.7 kcal/mol.
For CCCCCCCC(C)O (stereo not drawn), the “solvation free energy, 298 K” value (in O) was -3.57 kcal/mol.
For CC1=CCC23CC1C(C)(C)C2CCC3C (stereo not drawn), the “solvation free energy, 298 K” value (in O) was 0.78 kcal/mol.
In the case of CC12C=CC(C1)C(C)(C)C2 (stereo not drawn), the “solvation free energy, 298 K” value (in O) was 0.64 kcal/mol.
With CCCC(C)(C)O the “solvation free energy, 298 K” value (in CCCCCCCC) was -4.59 kcal/mol, the “solvation free energy, 298 K” value (in CCCCCCCCCC) was -4.54 kcal/mol and the “solvation free energy, 298 K” value (in O) was -3.92 kcal/mol.
In the case of COc1ncnc(NS(=O)(=O)c2ccc(N)cc2)c1OC, the “solvation free energy, 298 K” value (in O) was -19.6 kcal/mol.
With OCC(F)(F)F the “solvation free energy, 298 K” value (in C1COCCO1) was -5.63 kcal/mol, the “solvation free energy, 298 K” value (in CC(=O)N(C)C) was -6.81 kcal/mol and the “solvation free energy, 298 K” value (in CN(C)C=O) was -6.93 kcal/mol. For the same compound, the “solvation free energy, 298 K” value (in O) was -4.31 kcal/mol.
With CC(=O)C(C)C(C)=O the “solvation free energy, 298 K” value (in O) was -4.75 kcal/mol.
In the case of CN(C)CCc1ccc(O)cc1, the “solvation free energy, 298 K” value (in C=CCCCCCCC=C) was -10.1 kcal/mol and the “solvation free energy, 298 K” value (in O) was -11.3 kcal/mol.
For CC(=O)N1CCCC1, the “solvation free energy, 298 K” value (in O) was -9.8 kcal/mol.
For C=C1C2CCC(C2)C1(C)C (stereo not drawn), the “solvation free energy, 298 K” value (in O) was 0.61 kcal/mol.
In the case of CCCCCCCI, the “solvation free energy, 298 K” value (in O) was 0.27 kcal/mol.
With CC1=CCC2(C(C)C)CC12 (stereo not drawn) the “solvation free energy, 298 K” value (in O) was 0.5 kcal/mol.
With [2H][2H] the “solvation free energy, 298 K” value (in Brc1ccccc1) was 1.76 kcal/mol, the “solvation free energy, 298 K” value (in C1CCOC1) was 1.47 kcal/mol and the “solvation free energy, 298 K” value (in C1COCCO1) was 1.72 kcal/mol. The “solvation free energy, 298 K” value (in CC(C)(C)O) was 1.46 kcal/mol, the “solvation free energy, 298 K” value (in CC(C)CC(C)(C)C) was 1.27 kcal/mol and the “solvation free energy, 298 K” value (in CC(C)CO) was 1.53 kcal/mol. The “solvation free energy, 298 K” value (in CCC(C)O) was 1.54 kcal/mol, the “solvation free energy, 298 K” value (in CCCCCCC) was 1.27 kcal/mol and the “solvation free energy, 298 K” value (in CCCCCCCC) was 1.34 kcal/mol. The “solvation free energy, 298 K” value (in CCCCO) was 1.53 kcal/mol, the “solvation free energy, 298 K” value (in Clc1ccccc1) was 1.65 kcal/mol and the “solvation free energy, 298 K” value (in O) was 2.36 kcal/mol. The “solvation free energy, 298 K” value (in O=C1CCCC1) was 1.7 kcal/mol and the “solvation free energy, 298 K” value (in O=C1CCCCC1) was 1.73 kcal/mol.
With CCC(C)CCCC(C)CCCC(C)CCCC(C)C (stereo not drawn) the “solvation free energy, 298 K” value (in O) was 4.83 kcal/mol.
In the case of Clc1cc(Cl)c(Cl)c(Cl)c1, the “solvation free energy, 298 K” value (in CCCCCCCCO) was -7.57 kcal/mol and the “solvation free energy, 298 K” value (in O) was -1.62 kcal/mol.
With CCCC(=O)OCC the “solvation free energy, 298 K” value (in CCCCCCCC) was -4.69 kcal/mol, the “solvation free energy, 298 K” value (in CCCCCCCCCCCCCCCC) was -4.54 kcal/mol and the “solvation free energy, 298 K” value (in CCCCCCCCO) was -4.86 kcal/mol. The “solvation free energy, 298 K” value (in CN1CCCC1=O) was -4.9 kcal/mol, the “solvation free energy, 298 K” value (in O) was -2.52 kcal/mol and the “solvation free energy, 298 K” value (in O=CN1CCOCC1) was -4.61 kcal/mol. For the same compound, the “solvation free energy, 298 K” value (in [2H]O[2H]) was -2.59 kcal/mol.
In the case of ClCBr, the “solvation free energy, 298 K” value (in C1CCCCC1) was -3.69 kcal/mol, the “solvation free energy, 298 K” value (in ClC(Cl)(Cl)Cl) was -3.93 kcal/mol and the “solvation free energy, 298 K” value (in c1ccccc1) was -4.32 kcal/mol.
